# Results taken from patent publication US20160129089A1, “COMBINATION THERAPY” (ANTISENSE THERAPEUTICS LTD, priority 2013, published 2016).
# e = 2'-O-(2-methoxyethyl) (MOE); d = 2'-deoxy (DNA)
# Tested on: human growth hormone receptor mRNA
# Assay: Inhibition of human growth hormone receptor mRNA levels by antisense oligonucleotides, quantitative real-time PCR, MCF7 cells
# Assay type: cell-based
# Design: concentration or dose not given beside the values
# Details: averages from three experiments
# Protocol: “Target site” indicates the first (5′-most) nucleotide number on the particular target sequence to which the oligonucleotide binds. “% Inhib” indicates the inhibitory effect on hGHR mRNA levels by quantitative real-time PCR. Data are averages from three experiments in which MCF7 cells were treated with the antisense oligonucleotides.
# All oligonucelotides in Table 1 are chimeric oligonucleotides (“gapmers”), 20 nucleotides in length, composed of a central “gap” region consisting of ten 2′-deoxynucleotides, which is flanked on both sides (5′ and 3′ directions) by five-nucleotide “wings”. The wings are composed of 2′-methoxyethyl (2′-MOE) nucleotides. The internucleoside (backbone) linkages are phosphorothioate (P═S) throughout the oligonucleotide. All uracils are 5-methyluracils (^MeU). Typically, the oligonucleotide is synthesized using 2-methoxyethyl modified thymidines not 5-methyluracils. All pyrimidines are C5 methylated (i.e., U, T, C are C5 methylated).
row,Substance,% INHIB (inhibitory effect on hGHR mRNA levels) [%]
1,"272321 (antisense AACCCAAGAGTCATCACTGT; sugars from the 5' end e5 d10 e5, all phosphorothioate, methylation of C not given here) [compound 272321]",64
2,"272322 (antisense CTGGCTCATCAATATCTAGC; sugars from the 5' end e5 d10 e5, all phosphorothioate, methylation of C not given here) [compound 272322]",84
3,"272323 (antisense TGTGTCTGATTCCTCAGTCT; sugars from the 5' end e5 d10 e5, all phosphorothioate, methylation of C not given here) [compound 272323]",67
4,"272324 (antisense TATGTCATTGGCATTGAAAT; sugars from the 5' end e5 d10 e5, all phosphorothioate, methylation of C not given here) [compound 272324]",53
5,"272325 (antisense AAGGCATAAGAGATCTGCTT; sugars from the 5' end e5 d10 e5, all phosphorothioate, methylation of C not given here) [compound 272325]",66
6,"272326 (antisense ACTCAGCTCCTTCAGTAGGA; sugars from the 5' end e5 d10 e5, all phosphorothioate, methylation of C not given here) [compound 272326]",77
7,"272327 (antisense GGACATCCCTGCCTTATTCT; sugars from the 5' end e5 d10 e5, all phosphorothioate, methylation of C not given here) [compound 272327]",60
8,"272328 (antisense GGCATTGTCCATAAGGAAGT; sugars from the 5' end e5 d10 e5, all phosphorothioate, methylation of C not given here) [compound 272328]",85
9,"272329 (antisense ACTTTTTGGCATCTGCCTCA; sugars from the 5' end e5 d10 e5, all phosphorothioate, methylation of C not given here) [compound 272329]",63
10,"272330 (antisense GATGCACTTTTTGGCATCTG; sugars from the 5' end e5 d10 e5, all phosphorothioate, methylation of C not given here) [compound 272330]",47
11,"272331 (antisense CAGTCGCATTGAGTATGAGG; sugars from the 5' end e5 d10 e5, all phosphorothioate, methylation of C not given here) [compound 272331]",67
12,"272332 (antisense CTCTTTGTCAGGCAAGGGCA; sugars from the 5' end e5 d10 e5, all phosphorothioate, methylation of C not given here) [compound 272332]",75
13,"272333 (antisense GTGCTCACATAGCCACATGA; sugars from the 5' end e5 d10 e5, all phosphorothioate, methylation of C not given here) [compound 272333]",72
14,"272334 (antisense AAGAAAGGCTAAGGCATGAT; sugars from the 5' end e5 d10 e5, all phosphorothioate, methylation of C not given here) [compound 272334]",61
15,"272335 (antisense AAATACGTAGCTCTTGGGAA; sugars from the 5' end e5 d10 e5, all phosphorothioate, methylation of C not given here) [compound 272335]",47
16,"272336 (antisense CAATCACTGCTACTAAACAG; sugars from the 5' end e5 d10 e5, all phosphorothioate, methylation of C not given here) [compound 272336]",69
17,"272337 (antisense AAACATAGCCATTCAATGCT; sugars from the 5' end e5 d10 e5, all phosphorothioate, methylation of C not given here) [compound 272337]",39
18,"272338 (antisense GTGCTATGGTTTGCATTCAA; sugars from the 5' end e5 d10 e5, all phosphorothioate, methylation of C not given here) [compound 272338]",78

row,Substance,% INHIB (inhibitory effect on hGHR mRNA levels) [%]
1,"272339 (antisense GTTTTACATATCCAAACTAT; sugars from the 5' end e5 d10 e5, all phosphorothioate, methylation of C not given here) [compound 272339]",72
2,"272340 (antisense CATCAACCAAGATTTGGTGA; sugars from the 5' end e5 d10 e5, all phosphorothioate, methylation of C not given here) [compound 272340]",69
3,"272341 (antisense GAGGCTATAGATCTTATCTC; sugars from the 5' end e5 d10 e5, all phosphorothioate, methylation of C not given here) [compound 272341]",65
4,"272342 (antisense TAGTGAGAAAGAAAGTTTCT; sugars from the 5' end e5 d10 e5, all phosphorothioate, methylation of C not given here) [compound 272342]",45
5,"272343 (antisense AATGCTCTCAAGAATGATGT; sugars from the 5' end e5 d10 e5, all phosphorothioate, methylation of C not given here) [compound 272343]",48
6,"272344 (antisense ACACTCAATTCTAGCTTTTC; sugars from the 5' end e5 d10 e5, all phosphorothioate, methylation of C not given here) [compound 272344]",60
7,"272345 (antisense CATCTATTACAAATAACATG; sugars from the 5' end e5 d10 e5, all phosphorothioate, methylation of C not given here) [compound 272345]",24
8,"272346 (antisense CTCTTGGAGAAAACCATAGC; sugars from the 5' end e5 d10 e5, all phosphorothioate, methylation of C not given here) [compound 272346]",67
9,"272347 (antisense TCTACACTGATGATACTTTA; sugars from the 5' end e5 d10 e5, all phosphorothioate, methylation of C not given here) [compound 272347]",62
10,"272348 (antisense CACAGCTTTGAATTGAATTA; sugars from the 5' end e5 d10 e5, all phosphorothioate, methylation of C not given here) [compound 272348]",57
11,"272349 (antisense AGTCTTCCAAACACACAGCT; sugars from the 5' end e5 d10 e5, all phosphorothioate, methylation of C not given here) [compound 272349]",68
12,"272350 (antisense AGGCTGTTGTGAAATAGTAA; sugars from the 5' end e5 d10 e5, all phosphorothioate, methylation of C not given here) [compound 272350]",67
13,"272351 (antisense ATAGAAATGTTGTCAGGCTG; sugars from the 5' end e5 d10 e5, all phosphorothioate, methylation of C not given here) [compound 272351]",57
14,"272352 (antisense CCAAAATGACATTCTGAGAC; sugars from the 5' end e5 d10 e5, all phosphorothioate, methylation of C not given here) [compound 272352]",77
15,"272353 (antisense ATAATGGCTTATGTGGCCAC; sugars from the 5' end e5 d10 e5, all phosphorothioate, methylation of C not given here) [compound 272353]",72
16,"272354 (antisense AGTTATGTGACCCTGATTGA; sugars from the 5' end e5 d10 e5, all phosphorothioate, methylation of C not given here) [compound 272354]",65
17,"272355 (antisense TTGAGTGTTCCTAAAATGAA; sugars from the 5' end e5 d10 e5, all phosphorothioate, methylation of C not given here) [compound 272355]",24
18,"272356 (antisense ATGGAGGCTGGAGGTTCAAA; sugars from the 5' end e5 d10 e5, all phosphorothioate, methylation of C not given here) [compound 272356]",63
